Tests used:
immune-related genes = assay: NanoString immune profiling of whole blood from breast cancer patients given ganetespib; assay type: in vivo, human; conditions: 20-24 hours post intravenous drug administration, recommended Phase II dose
Method: Blood samples for gene expression analyses were obtained with informed consent from patients participating in an IRB-approved clinical trial coordinated by the Dana-Farber Cancer Institute, Boston, Mass. (DFCI 11-477, NCT01560416). All samples were processed and analyzed by collaborating investigators in an anonymous fashion to preserve patient confidentiality.
Gene expression measurements using Nanostring codesets were performed with NanoString XT GEx kits. Analyses were performed on total RNA from clinical samples or mouse tumor tissue following manufacturer's instructions. Briefly, 100 ng total RNA (measured by Qubit (Invitrogen)), was mixed with Capture and Reporter probe sets and hybridized for 16-20 hours at 65° C. prior to ramping down to hold at 4° C. Hybridized samples were processed on a Nanostring Prep Station according to manufacturer's instructions and then scanned with an FOV setting of 1100. All files (.rcc) were analyzed using nSolver v3.0 software.
As an approach to examine the impact of HSP90 compromise on the immune system in human cancer patients exposed to recommended dosing of an HSP90i, the RNA expression of immune-related genes in whole blood collected from 20 patients was profiled. […]

[1] = cited from earlier work
[2] = test system: human peripheral blood mononuclear cells; assay: RNA sequencing of ex vivo human peripheral blood mononuclear cells; assay type: cell-based; conditions: 500 nM for 20 hrs
Method: Whole blood was collected into lithium-heparin tubes and processed with Histopaque-1077 (Sigma) to isolate peripheral blood mononuclear cells per supplier's instructions. After overnight culture in RPMI160 with 20% autologous plasma, ganetespib (500 nM) or an equal volume of solvent vehicle (DMSO 0.1% v/v) was added to duplicate dishes. Incubation was continued for 24 hours after which cells were collected by centrifugation, lysed in RLT buffer (Qiagen) and total RNA isolated using an RNeasy kit per manufacturer's instructions (Qiagen). Sequencing library preparation was performed by the Whitehead Genome Technology Core using standard Illumina protocols and TruSeq adapters. Single-end, 40 bp sequencing was performed on a HiSeq 2000 instrument. Adapter sequences were trimmed, and reads were aligned to […] using TopHat2 and rpkm values generated with Cufflinks. Differential expression analysis was performed with the Bioconductor package DEseq.
To evaluate the immunosuppressive effect of high level HSP90 inhibition in a more controlled fashion, freshly isolated human peripheral blood mononuclear cells were cultured in ganetespib (500 nM for 20 hrs.) and the effects on RNA expression genome-wide were measured (FIG. 2A).

[3] = phase I, intravenous infusion days 1, 8 and 15, 4-weekly schedule

## CC(C)c1cc(-c2n[nH]c(=O)n2-c2ccc3c(ccn3C)c2)c(O)cc1O [Ganetespib]
immune-related genes
  expression of immune-related genes in whole blood: broad down-regulation of expression across diverse immune-related genes
[1]; clinical use
  side effects / adverse effects: diarrhea, fatigue, nausea, and anorexia
[1]; days 1 and 8 of a 21-day cycle, phase II
  MTD as a combination therapy with crizotinib: 200 mg/m2
[1]; human, in vivo
  ocular toxicity: No ocular toxicity has been reported
[1]; [3]
  MTD as a monotherapy: 216 mg/m^2
  highest dose with acceptable toxicity (RP2D): 200 mg/m^2
[2]
  most downregulated Gene Ontology categories: immune-related pathways
  most upregulated Gene Ontology categories: RNA splicing and protein folding

From US20190365719A1, “COMBINATION TREATMENTS OF HSP90 INHIBITORS FOR ENHANCING TUMOR IMMUNOGENICITY AND METHODS OF USE THEREOF” (Massachusetts Institute of Technology, priority 2018, published 2019)
